Assays:
[1] = tested on: γ-aminobutyric α-ketoglutaric transaminase (GABA T); assay: Inhibition of GABA T in vitro (coupled spectrophotometric test with GABASE); assay type: biochemical, Pseudomonas fluorescens; settings: comparison of Ki with sodium di-n-propylacetate (0.8 m mol/ml)
Experimental: This test was undertaken "in vitro" in the absorption cell of a double-beam U.V. spectrophotometer.
The activity of GABA T was measured by following the reduction rate (v) of NADP^+ which corresponds to the evolution of the optical density at 340 mμ on the spectrophotometer.
Determination of the activity rate of GABA T by the principle hereabove described can be effected with either limiting concentrations or a saturating concentration of one of the substrates, in the present case GABA, in each instance, in the presence of a saturating concentration of the second substrate namely α-ketoglutarate.
This effectiveness is represented by the constant Ki or constant of inhibition which determines the affinity of the enzyme (GABA T) for the inhibitor.
This constant is expressed in units of concentration, in the present case, in m mol per ml and can be determined by plotting all the curves corresponding to 1/v = f (I) for a saturating concentration of GABA and for different limiting concentrations of GABA.
The following experimental procedure was used:
In the absorption cell (optical passage: 1 cm, volume: about 1 ml) the following solutions were introduced.
0.5 ml of a 1.5 molar solution of sodium sulphate
0.05 ml of a molar buffer solution of pH = 7.9
0.05 ml of a 0.1 molar solution of mercapto-ethanol
0.05 ml of a 20 mg/ml solution of NADP^+
0.125 ml of a solution of GABA
0.03 ml of a 40 mg/ml solution of GABASE (namely a bacterial enzyme isolated from Pseudomonas fluorescens containing a mixture of γ-aminobutyric α-ketoglutaric transaminase and succinosemialdehyde dehydrogenase).
0.125 ml of a solution of the compound to be studied.
If the compound of the invention was in the form of a water-insoluble acid, its sodium salt was used after adjustment to a pH of about 7.9 by adding a titrated solution of sodium hydroxide.
Different measurements of optical density were effected by varying the concentration of GABA and the concentration of the compound under study. Control assays were also effected by replacing the solution of the compound to be studied by 0.125 ml of water.
The content of the absorption cell was allowed to incubate for 10 minutes at 30° C. and then the enzymatic reaction was started by adding 0.1 ml of a 0.02 molar solution of α-ketoglutarate in the absorption cell. The final volume was 1.03 ml. The reaction was then followed by spectrophotometric recording of the reduction rate of the NADP^+ at 340 mμ and at 30° C. The optical density was automatically registered every 30 seconds.

[2] = tested on: anoxic seizure induced by gallamine triiodoethylate; assay: Antianoxic activity: anoxic seizure induced by gallamine triiodoethylate; assay type: in vivo, mouse; settings: mice; for antianoxic activity compared with sodium di-n-propylacetate: at the doses studied in Table II
Experimental: The injection of a sufficient dose of a synthetic curariform substance such as gallamine triiodoethylate provokes in the mouse paralysis of the diaphragm. The animal then dies through asphyxia.
An intraperitoneal dose of the compound to be studied was administered to batches of 20 mice five minutes before the administration of 16 mg/kg of gallamine triiodoethylate by intraperitoneal route. The dose of the compound to be tested was calculated so that each batch received a higher dose than the preceding batch.
The period of time of survival was registered by controlling cardiac arrest by means of an electrocardiogram.
Under these conditions, an antianoxic effect produces an increase in the period of survival of the animal.

[3] = tested on: pentylenetetrazol-induced seizure; assay: Anticonvulsant activity: pentylenetetrazol-induced seizure; assay type: in vivo; settings: for % of protection: i.p. 15 min before 125 mg/kg pentylenetetrazol i.p., deaths noted at 3 hours, dose mg/kg: A 160, B 175, C 185, F 185, G 175; for anticonvulsant activity compared with sodium di-n-propylacetate / duration of anticonvulsant action compared with sodium di-n-propylacetate: pentylenetetrazol test
Experimental: This test is carried out on mice with a view to determining whether the compounds of this invention, when given preventively by intraperitoneal route, are capable at certain doses of protecting some of the animals against the epileptic seizure produced by an adequate and predetermined dose of pentylenetetrazol which would be 100% fatal in the absence of the compound.
The test was carried out on batches of 10 mice. Each batch of animals received an intraperitoneal dose of the compound to be studied so that each batch received a higher dose than the preceding batch. Fifteen minutes after administration of the compound to be tested, the animals were each given 125 mg/kg of pentylenetetrazol by intraperitoneal route. The percentage of deaths was noted 3 hours after injection of this latter compound and the result was expressed as a percentage of protection.

in vivo = settings: ip, mouse, intraperitoneal route
[4] = Solubility of the isolated acid; assay type: physicochemical; settings: free acid
From the text: In this manner, 9.6 g of 3-n-propyl-hexanoic acid were obtained in the form of a colourless, slightly viscous liquid, insoluble in water and soluble in the organic solvents.

[5] = tested on: pentylenetetrazol-induced seizure; assay: Anticonvulsant activity: pentylenetetrazol-induced seizure; assay type: in vivo; settings: mice; for % of the animals still protected one hour after administration: 195 mg/kg of Compound B, 210 mg/kg of Compound C
[6] = i.p. 5 min before 16 mg/kg gallamine triiodoethylate i.p., dose mg/kg: A 360, D 250, E 150, F 210, G 355
[7] = mice, 195 mg/kg of Compound B, 210 mg/kg of Compound C

SMILES	activity as GABA T inhibitor compared with sodium di-n-propylacetate [1]	antianoxic activity compared with sodium di-n-propylacetate [2]	% of increase in the period of survival in comparison with the controls [2, 6]	% of protection ([3]; mice)	LD50 (in vivo)	other results
CCCC(CCC)CC(=O)O [Compound A, 3-n-Propyl-hexanoic acid]	more active	slightly more active	60%	100%	500 mg/kg	anticonvulsant activity compared with sodium di-n-propylacetate ([3]; mice): more active; % protection against the pentylenetetrazol-induced seizure ([3]; mice, 105 mg/kg by intraperitoneal route): 85%; MTD (in vivo; read-out: LDO, maximum tolerated dose (M.T.D.), highest dose which provokes no deaths): > 400 mg/kg; solubility in the organic solvents ([4]; organic solvents): soluble; solubility in water ([4]; water): insoluble
CCCC(CCC)CCC(=O)O [Compound B, 4-n-Propyl-heptanoic acid]	slightly less active	–	–	85%	350 mg/kg	duration of anticonvulsant action compared with sodium di-n-propylacetate ([3]; mice): longer period of time; % protection against the pentylenetetrazol-induced seizure [3, 7]: about 100%; % of the animals still protected one hour after administration [5]: 40%
CCCC(CCC)CCCC(=O)O [Compound C, 5-n-Propyl-octanoic acid]	–	–	–	85%	350 mg/kg	% of the mice protected against the pentylenetetrazol-induced seizure ([3]; 125 mg/kg by intraperitoneal route): 65%; duration of anticonvulsant action compared with sodium di-n-propylacetate ([3]; mice): longer period of time; % protection against the pentylenetetrazol-induced seizure [3, 7]: about 100%; % of the animals still protected one hour after administration [5]: 70%
CC(C)CC(=O)O [Compound D, 3-methyl-butanoic acid]	–	appreciably more active	73%	–	–	–
CCC(CC)CC(=O)O [Compound E, 3-ethyl-pentanoic acid]	–	appreciably more active	59%	–	–	–
CCCCC(CCCC)CC(=O)O [Compound F, 3-n-Butyl-heptanoic acid]	slightly less active	slightly more active	29%	95%	300 mg/kg	anticonvulsant activity compared with sodium di-n-propylacetate ([3]; mice): more active
CCCC(=CC(=O)O)CCC [Compound G, 3-n-Propyl-2-hexenoic acid]	more active	slightly more active	50%	75%	–	–
CCCC(CCC)C(=O)[O-].[Na+] [sodium di-n-propylacetate, reference compound]	–	–	–	–	–	% of increase in the period of survival in comparison with the controls ([2]; 330 mg/kg, same conditions (i.p. 5 min before 16 mg/kg gallamine triiodoethylate i.p.)): 40%; % of animals protected against the pentylenetetrazol-induced seizure ([3]; mice, 250 mg/kg, same conditions): 100%; % protection of the animals one hour after administration ([5]; 250 mg/kg): 20%
